Measured values reported in PubChem BioAssay AID248 (DTP/NCI, 2004).
“And” between values parts separate entries of the source, which are not always exact repeats. Identical values can stand only once. Inconclusive results and toxic doses are left out. Cut-off read from the data, not from the text of the source: active = T/C of 150% or more; inactive = T/C below 125%.

Tested on: L1210 leukemia ip in BDF1 mice, survival T/C
Test: NCI In Vivo Anticancer Drug Screen. Data for tumor model L1210 Leukemia (intraperitoneal) in B6D2F1 (BDF1) mice
Conditions: endpoint: mean survival time, higher = longer survival
How it was run: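 Each compound was tested against a transplantable tumor grown in mice. The endpoint was survival, with treated animals benchmarked against vehicle controls as a simple ratio.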

[1] = dose: 100.0 mg/kg/injection, schedule: Q04DX003 (ip), vehicle: saline
[2] = dose: 100.0 mg/kg/injection, schedule: Q01DX009 (ip), vehicle: saline
[3] = dose: 100.0 mg/kg/injection, schedule: Q04DX002 (ip), vehicle: saline
[4] = dose: 200.0 mg/kg/injection, schedule: Q01DX009 (ip), vehicle: saline
[5] = dose: 200.0 mg/kg/injection, schedule: Q04DX002 (ip), vehicle: saline
[6] = dose: 400.0 mg/kg/injection, schedule: Q04DX002 (ip), vehicle: saline
[7] = dose: 50.0 mg/kg/injection, schedule: Q01DX001 (ip), vehicle: saline
[8] = dose: 100.0 mg/kg/injection, schedule: Q01DX001 (ip), vehicle: saline
[9] = dose: 200.0 mg/kg/injection, schedule: Q01DX001 (ip), vehicle: saline
[10] = dose: 50.0 mg/kg/injection, schedule: Q04DX002 (ip), vehicle: saline
[11] = dose: 100.0 mg/kg/injection, schedule: Q04DX002 (ip), vehicle: Klucel (hydroxypropylcellulose) (HPC)
[12] = dose: 200.0 mg/kg/injection, schedule: Q04DX002 (ip), vehicle: Klucel (hydroxypropylcellulose) (HPC)
[13] = dose: 400.0 mg/kg/injection, schedule: Q04DX002 (ip), vehicle: Klucel (hydroxypropylcellulose) (HPC)

Measured: T/C

CC(=O)CC(=O)NCc1cccc(C)n1
inactive: [1] 114 % of control | dose: 200.0 mg/kg/injection, schedule: Q04DX003 (ip), vehicle: saline 98 % of control | dose: 400.0 mg/kg/injection, schedule: Q04DX003 (ip), vehicle: saline 103 % of control

O=C(O)CCNCc1ccccc1
inactive: dose: 50.0 mg/kg/injection, schedule: Q01DX009 (ip), vehicle: saline 100 % of control | [2] 108 % of control | [3] 111 % of control | [4] 100 % of control | [5] 97 % of control | [6] 97 % of control

CC(C)(C)OOC(=O)C1(F)CC1(c1ccccc1)c1ccccc1 (stereo not drawn)
inactive: dose: 50.0 mg/kg/injection, schedule: Q01DX001 (ip), vehicle: Klucel (hydroxypropylcellulose) (HPC) 100 % of control | dose: 100.0 mg/kg/injection, schedule: Q01DX001 (ip), vehicle: Klucel (hydroxypropylcellulose) (HPC) 100 % of control | dose: 200.0 mg/kg/injection, schedule: Q01DX001 (ip), vehicle: Klucel (hydroxypropylcellulose) (HPC) 109 % of control

CC(C)(C)C1CSC(c2ccccc2)SC1 (stereo not drawn)
inactive: dose: 12.5 mg/kg/injection, schedule: Q04DX002 (ip), vehicle: Klucel (hydroxypropylcellulose) (HPC) 98 % of control | dose: 25.0 mg/kg/injection, schedule: Q04DX002 (ip), vehicle: Klucel (hydroxypropylcellulose) (HPC) 92 % of control | dose: 50.0 mg/kg/injection, schedule: Q04DX002 (ip), vehicle: Klucel (hydroxypropylcellulose) (HPC) 98 % of control

BrCCCC[P+](c1ccccc1)(c1ccccc1)c1ccccc1
inactive: dose: 12.5 mg/kg/injection, schedule: Q04DX003 (ip), vehicle: Klucel (hydroxypropylcellulose) (HPC) 95 % of control | dose: 25.0 mg/kg/injection, schedule: Q04DX003 (ip), vehicle: Klucel (hydroxypropylcellulose) (HPC) 106 % of control | [7] 107 % of control | dose: 50.0 mg/kg/injection, schedule: Q04DX003 (ip), vehicle: Klucel (hydroxypropylcellulose) (HPC) 98 % of control | [8] 110 % of control

O=C(O)C(CNC(=O)C(F)(F)F)Cc1ccc([N+](=O)[O-])cc1 (stereo not drawn)
inactive: dose: 100.0 mg/kg/injection, schedule: Q01DX009 (ip), vehicle: saline with Tween-80 120 % of control | [2] 88 % of control | [4] 103 % of control

O=C(O)/C=C/C(=O)OCCO
inactive: dose: 75.0 mg/kg/injection, schedule: Q01DX001 (ip), vehicle: carboxymethylcellulose (CMC) 91 % of control | dose: 150.0 mg/kg/injection, schedule: Q01DX001 (ip), vehicle: carboxymethylcellulose (CMC) 86 % of control

Cc1c(CCNC=O)cc(C)c2c3c(oc12)CCCC3
inactive: [7] 101 % of control | [8] 104 % of control | [9] 104 % of control

Cc1ccnc(NC(=O)Nc2cc(C)ccc2C)c1
inactive: dose: 100.0 mg/kg/injection, schedule: Q01DX009 (ip), vehicle: Klucel (hydroxypropylcellulose) (HPC) 94 % of control | dose: 200.0 mg/kg/injection, schedule: Q01DX009 (ip), vehicle: Klucel (hydroxypropylcellulose) (HPC) 91 % of control | dose: 400.0 mg/kg/injection, schedule: Q01DX009 (ip), vehicle: Klucel (hydroxypropylcellulose) (HPC) 92 % of control

CC1(C)CC(Br)C(=O)c2ccccc21 (stereo not drawn)
inactive: dose: 100.0 mg/kg/injection, schedule: Q04DX003 (ip), vehicle: Klucel (hydroxypropylcellulose) (HPC) 100 % of control | dose: 200.0 mg/kg/injection, schedule: Q04DX003 (ip), vehicle: Klucel (hydroxypropylcellulose) (HPC) 105 % of control | dose: 400.0 mg/kg/injection, schedule: Q04DX003 (ip), vehicle: Klucel (hydroxypropylcellulose) (HPC) 97 % of control

CC1=C2CCC(C)CC23C2C(=O)OC(=O)C2C1C1C(=O)OC(=O)C13 (stereo not drawn)
inactive: dose: 25.0 mg/kg/injection, schedule: Q01DX009 (ip), vehicle: saline 100 % of control | dose: 50.0 mg/kg/injection, schedule: Q04DX003 (ip), vehicle: saline 101 % of control | [8] 93 % of control | [1] 90 % of control | [9] 108 % of control

CC(C)CCCC(C)C1CCC2C3CC(=O)OC45CC4CCC5(C)C3CCC12C (stereo not drawn)
inactive: dose: 100.0 mg/kg/injection, schedule: Q01DX001 (ip), vehicle: acetone 94 % of control | dose: 100.0 mg/kg/injection, schedule: Q01DX009 (ip), vehicle: acetone 89 % of control | dose: 200.0 mg/kg/injection, schedule: Q01DX001 (ip), vehicle: acetone 89 % of control | dose: 200.0 mg/kg/injection, schedule: Q01DX009 (ip), vehicle: acetone 91 % of control | dose: 400.0 mg/kg/injection, schedule: Q01DX001 (ip), vehicle: acetone 91 % of control | dose: 400.0 mg/kg/injection, schedule: Q01DX009 (ip), vehicle: acetone 90 % of control

NCc1cc[n+]([O-])cc1
inactive: dose: 25.0 mg/kg/injection, schedule: Q04DX002 (ip), vehicle: saline 102 % of control | [10] 102 % of control | [3] 102 % of control | [6] 88 % of control

CSc1ccc(OC(=O)Nc2cccc(Cl)c2)cc1C
inactive: dose: 100.0 mg/kg/injection, schedule: Q01DX001 (ip), vehicle: carboxymethylcellulose (CMC) 94 % of control | dose: 100.0 mg/kg/injection, schedule: Q01DX009 (ip), vehicle: carboxymethylcellulose (CMC) 98 % of control | [11] 101 % of control | dose: 100.0 mg/kg/injection, schedule: Q04DX002 (ip), vehicle: carboxymethylcellulose (CMC) 96 % of control and 101 % of control | dose: 100.0 mg/kg/injection, schedule: Q04DX003 (ip), vehicle: carboxymethylcellulose (CMC) 101 % of control | dose: 200.0 mg/kg/injection, schedule: Q01DX001 (ip), vehicle: carboxymethylcellulose (CMC) 97 % of control | dose: 200.0 mg/kg/injection, schedule: Q01DX009 (ip), vehicle: carboxymethylcellulose (CMC) 100 % of control and 106 % of control | [12] 95 % of control | dose: 200.0 mg/kg/injection, schedule: Q04DX002 (ip), vehicle: carboxymethylcellulose (CMC) 95 % of control and 88 % of control | dose: 200.0 mg/kg/injection, schedule: Q04DX003 (ip), vehicle: carboxymethylcellulose (CMC) 94 % of control | dose: 400.0 mg/kg/injection, schedule: Q01DX001 (ip), vehicle: carboxymethylcellulose (CMC) 87 % of control | dose: 400.0 mg/kg/injection, schedule: Q01DX009 (ip), vehicle: carboxymethylcellulose (CMC) 93 % of control and 87 % of control | [13] 108 % of control | dose: 400.0 mg/kg/injection, schedule: Q04DX002 (ip), vehicle: carboxymethylcellulose (CMC) 95 % of control and 103 % of control | dose: 400.0 mg/kg/injection, schedule: Q04DX003 (ip), vehicle: carboxymethylcellulose (CMC) 92 % of control

COC1OCC(Cl)C(Cl)C1O (stereo not drawn)
inactive: [10] 110 % of control | [3] 100 % of control | [5] 100 % of control

CCCCCCCCCCCCCCCc1cccc2ccccc12
inactive: dose: 100.0 mg/kg/injection, schedule: Q04DX003 (ip), vehicle: saline with Tween-80 92 % of control | dose: 200.0 mg/kg/injection, schedule: Q04DX003 (ip), vehicle: saline with Tween-80 92 % of control | dose: 400.0 mg/kg/injection, schedule: Q04DX003 (ip), vehicle: saline with Tween-80 88 % of control

Cc1ccc(-n2ccnc2)c(N=Cc2ccc(N(CCCl)CCCl)cc2F)c1
inactive: [11] 98 % of control | [12] 106 % of control | [13] 106 % of control
